# Experimental data published in ChEMBL document CHEMBL1201862, “PubChem BioAssay data set” (2004).
#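 Values below derive from 48-hour exposures of cells grown in 96-well plates, with endpoints linearly interpolated between the two concentrations bracketing the appropriate inhibition level. GI50 marks 50% less growth.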 Calls of active or inactive are those of the source. Cut-off read from the data, not from the text of the source: active = GI50 up to about 1.1 µM and inactive = higher.
# What was measured:
# Assay in all cases: growth of human tumour cells (NCI), 48 h
# [1] = test system: UACC-62
# [2] = test system: SF-295
# [3] = test system: OVCAR-4
# [4] = test system: SW-620
# [5] = test system: SN12C
# [6] = test system: Malme-3M
# [7] = test system: HOP-62
# [8] = test system: 786-0
# [9] = test system: UACC-257
# [10] = test system: SNB-75
# [11] = test system: ACHN
# [12] = test system: LOX IMVI
# [13] = test system: A549
# [14] = test system: A498
# [15] = test system: OVCAR-8
# [16] = test system: HCT-15
# [17] = test system: NCI-H522
# [18] = test system: SR
# [19] = test system: HOP-92
Compound,GI50 [1],GI50 [2],GI50 [3],GI50 [4],GI50 [5],GI50 [6],GI50 [7],GI50 [8],GI50 [9],GI50 [10],GI50 [11],GI50 [12],GI50 [13],GI50 [14],GI50 [15],GI50 [16],GI50 [17],GI50 [18],GI50 [19]
CCOC(=O)CNC(=O)c1nc[nH]c1/N=N/N(C)C,> 100 µM (inactive),> 100 µM (inactive),> 100 µM (inactive),> 100 µM (inactive),> 100 µM (inactive),> 100 µM (inactive),> 100 µM (inactive),> 100 µM (inactive),> 100 µM (inactive),> 100 µM (inactive),> 100 µM (inactive),> 100 µM (inactive),> 100 µM (inactive),> 100 µM (inactive),> 100 µM (inactive),> 100 µM,> 100 µM (inactive),> 100 µM (inactive),
CC(=O)NNc1nc(C)c(C(=O)/C=C/c2ccc(NC(C)=O)cc2)s1,> 100 µM (inactive),> 100 µM (inactive),,> 100 µM (inactive),> 100 µM (inactive),> 100 µM (inactive),> 100 µM (inactive),> 100 µM (inactive),98.6 µM (inactive),> 100 µM (inactive),> 100 µM (inactive),> 100 µM (inactive),> 100 µM (inactive),> 100 µM (inactive),> 100 µM (inactive),> 100 µM,> 100 µM (inactive),,> 100 µM (inactive)
COc1ccc(OC)c2c(C(=O)O)c(Cc3ccccc3)ccc12,> 100 µM (inactive),> 100 µM (inactive),> 100 µM (inactive),> 100 µM (inactive),> 100 µM (inactive),> 100 µM (inactive),> 100 µM (inactive),> 100 µM (inactive),> 100 µM (inactive),> 100 µM (inactive),> 100 µM (inactive),> 100 µM (inactive),> 100 µM (inactive),> 100 µM (inactive),> 100 µM (inactive),> 100 µM,> 100 µM (inactive),> 100 µM (inactive),
C/C(CC(=O)NCCc1ccccc1)=N\NC(=O)C[n+]1ccccc1,> 100 µM (inactive),> 100 µM (inactive),,> 100 µM (inactive),,> 100 µM (inactive),> 100 µM (inactive),> 100 µM (inactive),> 100 µM (inactive),> 100 µM (inactive),> 100 µM (inactive),> 100 µM (inactive),> 100 µM (inactive),> 100 µM (inactive),> 100 µM (inactive),> 100 µM,> 100 µM (inactive),,> 100 µM (inactive)
CCOC(=O)NC1C2CC(=O)C(O2)C1OCc1ccccc1 (configuration not stated),> 100 µM (inactive),> 100 µM (inactive),> 100 µM (inactive),> 100 µM (inactive),> 100 µM (inactive),> 100 µM (inactive),> 100 µM (inactive),> 100 µM (inactive),> 100 µM (inactive),> 100 µM (inactive),> 100 µM (inactive),> 100 µM (inactive),> 100 µM (inactive),> 100 µM (inactive),,> 100 µM,,,> 100 µM (inactive)
COc1ccc2c(c1)C/C(=C\c1cccc3ccccc13)C2=O,12.5 µM (inactive),,67.9 µM (inactive),3.98 µM (inactive),8.87 µM (inactive),,,15.4 µM (inactive),,12.4 µM (inactive),27.6 µM (inactive),5.07 µM (inactive),6.89 µM (inactive),23.4 µM (inactive),21.7 µM (inactive),4.7 µM,,4.65 µM (inactive),
CC(=O)Nc1ccc(/C=c2\sc3nnc(CCC(=O)Nc4ccccc4Cl)n3c2=O)cc1,23.9 µM (inactive),18.1 µM (inactive),20.6 µM (inactive),27 µM (inactive),39.6 µM (inactive),38.8 µM (inactive),54 µM (inactive),21.8 µM (inactive),> 10 µM (inactive),,> 100 µM (inactive),17.2 µM (inactive),30.4 µM (inactive),,> 10 µM (inactive),44.6 µM,18.7 µM (inactive),20.3 µM (inactive),27.4 µM (inactive)
O=c1cc(-c2ccccc2)[nH]c2c(Cl)cccc12,4.55 µM (inactive),20.1 µM (inactive),18.9 µM (inactive),3.86 µM (inactive),46.2 µM (inactive),64.9 µM (inactive),7.26 µM (inactive),26.3 µM (inactive),78.3 µM (inactive),13.8 µM (inactive),78 µM (inactive),9.35 µM (inactive),7.98 µM (inactive),14.2 µM (inactive),16.6 µM (inactive),5.09 µM,,7.53 µM (inactive),
CN(C)c1ccc(/C=C2\N=C(c3ccc(N)cc3)OC2=O)cc1,> 100 µM (inactive),> 100 µM (inactive),> 100 µM (inactive),> 100 µM (inactive),> 100 µM (inactive),> 100 µM (inactive),> 100 µM (inactive),> 100 µM (inactive),> 100 µM (inactive),> 100 µM (inactive),> 100 µM (inactive),> 100 µM (inactive),> 100 µM (inactive),> 100 µM (inactive),> 100 µM (inactive),> 100 µM,> 100 µM (inactive),,> 100 µM (inactive)
CC1CC2(S(=O)(=O)c3ccccc3)ON1CC2S(=O)(=O)c1ccccc1 (configuration not stated),> 100 µM (inactive),> 100 µM (inactive),> 100 µM (inactive),> 100 µM (inactive),> 100 µM (inactive),> 100 µM (inactive),> 100 µM (inactive),> 100 µM (inactive),> 100 µM (inactive),> 100 µM (inactive),> 100 µM (inactive),> 100 µM (inactive),> 100 µM (inactive),,> 100 µM (inactive),> 100 µM,70.8 µM (inactive),> 100 µM (inactive),
N#CC(C(=O)CCC(=O)Nc1ccc(Cl)cc1)c1ccccc1Cl (configuration not stated),16 µM (inactive),> 100 µM (inactive),> 100 µM (inactive),> 100 µM (inactive),> 100 µM (inactive),> 100 µM (inactive),,> 100 µM (inactive),> 100 µM (inactive),45.9 µM (inactive),54.8 µM (inactive),,> 100 µM (inactive),> 100 µM (inactive),> 100 µM (inactive),21 µM,> 100 µM (inactive),,> 100 µM (inactive)
O=C1/C(=C\c2ccc(Cl)cc2Cl)Sc2scc(-c3ccc(O)c(O)c3)[n+]21,7.36 µM (inactive),17.4 µM (inactive),13.4 µM (inactive),14 µM (inactive),15.9 µM (inactive),,15.6 µM (inactive),15.7 µM (inactive),18.8 µM (inactive),21.8 µM (inactive),18.8 µM (inactive),16.4 µM (inactive),16.9 µM (inactive),,17.2 µM (inactive),14.8 µM,16.5 µM (inactive),,7.76 µM (inactive)
Cc1cccc2c3ccc4c(c3n(C)c12)C(=O)C=CC4=O,59.7 µM (inactive),> 100 µM (inactive),> 100 µM (inactive),> 100 µM (inactive),> 100 µM (inactive),> 100 µM (inactive),> 100 µM (inactive),> 100 µM (inactive),> 100 µM (inactive),> 100 µM (inactive),,,> 100 µM (inactive),,89.1 µM (inactive),,> 100 µM (inactive),29.3 µM (inactive),> 100 µM (inactive)
COc1ccc(/C(Cl)=C(/c2ccc(O)cc2)c2ccc(OCCN(C)C)cc2)cc1,16.6 µM (inactive),4.78 µM (inactive),13.9 µM (inactive),11.9 µM (inactive),12.9 µM (inactive),4.62 µM (inactive),13.6 µM (inactive),6.03 µM (inactive),2.9 µM (inactive),11 µM (inactive),14.6 µM (inactive),2.96 µM (inactive),13.8 µM (inactive),,15.5 µM (inactive),11.3 µM,12.1 µM (inactive),2.9 µM (inactive),
N#CC(C(=O)CCC(=O)Nc1ccc(Cl)c(Cl)c1)c1ccccc1 (configuration not stated),> 100 µM (inactive),> 100 µM (inactive),> 100 µM (inactive),> 100 µM (inactive),> 100 µM (inactive),> 100 µM (inactive),> 100 µM (inactive),> 100 µM (inactive),> 100 µM (inactive),> 100 µM (inactive),> 100 µM (inactive),,> 100 µM (inactive),> 100 µM (inactive),> 100 µM (inactive),> 100 µM,,,> 100 µM (inactive)
O=C1CC23CCCCCCCCCCC2(C1)CC(=O)C3 (configuration not stated),,35.3 µM (inactive),,40.6 µM (inactive),17.6 µM (inactive),24.6 µM (inactive),,32.6 µM (inactive),34.8 µM (inactive),,29 µM (inactive),,30 µM (inactive),,31.2 µM (inactive),27.3 µM,18.6 µM (inactive),19.9 µM (inactive),21.1 µM (inactive)
CC(C)(C)c1c(C(C)(C)C)c(=O)c1=O,> 100 µM (inactive),> 100 µM (inactive),> 100 µM (inactive),> 100 µM (inactive),> 100 µM (inactive),> 100 µM (inactive),> 100 µM (inactive),> 100 µM (inactive),> 100 µM (inactive),> 100 µM (inactive),> 100 µM (inactive),> 100 µM (inactive),> 100 µM (inactive),86.1 µM (inactive),> 100 µM (inactive),> 100 µM,,,> 100 µM (inactive)
